Molecules are shown by their SMILES.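 Test compounds were applied to cells in 96-well plates for 48 hours at 5 doses. The concentration for 50% growth inhibition is given as GI50.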 Activity calls are given as the source filed them. Rule as the data show it: active = GI50 up to about 1.1 µM and inactive = higher. Bounds are passed on as bounds.

Test systems include DMS-273; XF498; DMS-114; HOP-18; M19-MEL; BT-549; RXF 631; LXFL 529; 786-0.
What all share (assay): NCI anticancer screen, dose series, 48 h

For `CC1=C2C(O)C(C(C)C(=O)NC(C)C)CCC2(C)C=CC1=O` (centres undefined), the GI50 in the experiment with DMS-273, in the experiment on XF498, in the experiment on DMS-114 and in the experiment with HOP-18 was > 100 µM (inactive) each time.

In the case of `CC(=O)OC1CCC2(C)C3CCC4(C)C(c5ccc(=O)oc5)CC5OC54C3CCC2(O)C1` (centres undefined), the GI50 with M19-MEL is 2.21 µM (inactive); in the experiment on DMS-273 it was 0.798 µM (active); in the experiment on XF498 it was 2.92 µM (inactive); in the experiment on DMS-114, 0.109 µM (active); in the experiment on HOP-18, 0.461 µM (active).

With `Cc1cn(C2CC(N)C(C(=O)NCC(=O)O)O2)c(=O)[nH]c1=O` (centres undefined), the GI50 in the experiment with BT-549 was > 100 µM (inactive).

On to `COc1ccc(/C(Cl)=C(\C=O)c2ccc(F)cc2)cc1OC`, for which the GI50 in the experiment on M19-MEL is 21 µM (inactive); in the experiment on DMS-273, 27.4 µM (inactive); in the experiment with RXF 631, 19.9 µM (inactive); in the experiment on LXFL 529, 11.5 µM (inactive); in the experiment on DMS-114 it was 14.4 µM (inactive); in the experiment on HOP-18 it was 12.9 µM (inactive).

With `COC(=O)C(C(=O)C(=O)Nc1nnc(S)[nH]1)c1csc(-n2nc(-c3ccccc3)cc2-c2ccccc2)n1` (centres undefined), the GI50 in the experiment on M19-MEL, in the experiment with DMS-273, in the experiment with LXFL 529 and with 786-0 was > 100 µM (inactive) in each case.

`CCN1CCC(O)(C(C(=O)O)c2ccccc2)CC1` (centres undefined): in the experiment on BT-549, the GI50 was > 100 µM (inactive).

On to `COc1nc(C#CCC(C)O)nc(OC)n1` (centres undefined), for which the GI50 in the experiment with BT-549 was 18.4 µM (inactive).

For the compound `COC1OC2COC(c3ccccc3)OC2C(OC(=S)c2ccccc2)C1O` (centres undefined), the GI50 in the experiment with BT-549 is > 100 µM (inactive).

Take `N#CN=C(NCCO)NCCO`: the GI50 in the experiment on M19-MEL is > 100 µM (inactive); with RXF 631 it was > 100 µM (inactive); in the experiment on LXFL 529 it was > 100 µM (inactive); in the experiment on XF498, > 100 µM (inactive); with DMS-114 it was > 100 µM (inactive); with HOP-18 it was 45.1 µM (inactive).

As to `C=CCc1c(O)c2c(c3oc(=O)cc(C)c13)CC(C)O2` (centres undefined), the GI50 was 72.4 µM (inactive) with M19-MEL; > 100 µM (inactive) in the experiment with DMS-273; > 100 µM (inactive) with LXFL 529; > 100 µM (inactive) with DMS-114; 90.2 µM (inactive) with HOP-18.

The record behind these values is ChEMBL document CHEMBL1201862, “PubChem BioAssay data set” (2004).
